No end group written: not given here.
Columns and labels:
HMGB1 = target: T1, HMGB1 (Homo sapiens, UniProt P09429); experiment: Surface plasmon resonance (BIAcore) analysis of binding to HMGB1
T1 sequence (P09429 1-215): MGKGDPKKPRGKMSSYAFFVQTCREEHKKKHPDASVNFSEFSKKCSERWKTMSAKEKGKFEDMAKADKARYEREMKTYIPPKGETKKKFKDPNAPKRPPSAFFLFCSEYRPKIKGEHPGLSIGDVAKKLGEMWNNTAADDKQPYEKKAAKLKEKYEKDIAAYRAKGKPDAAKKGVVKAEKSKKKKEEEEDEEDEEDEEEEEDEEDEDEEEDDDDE
Description: FIG. 2A-2B: 2A. Human haptoglobin has three phenotypes and contains α and β subunits. 2B. […] Data shown is representative of 3 separate experiments.
(§1) FIG. 6A-6C: 6A. Schematics of haptoglobin (Hp) β and Hp β peptide (SEQ ID NO:1). 6B. […] 6C. […] N=5.
Haptoglobin (Hp) β binds to HMGB1: Human haptoglobin has three phenotypes and contains α and β subunits.
(§2) Haptoglobin β peptide retains the activity to bind and inhibit HMGB1 toxicity. […] (See FIG. 6C).

[1] = system: HMGB1-induced TNF release in murine macrophage-like RAW 264.7 cells; experiment: Inhibition of HMGB1-induced TNF release in RAW 264.7 cells; type: cell-based
Procedure: FIG. 3A-3B: HMGB1 stimulated TNF release in murine macrophage-like RAW 264.7 cells. 3A. The addition of haptoglobin produced a dose-dependent attenuation of the HMGB1-induced TNF release (up to 90% inhibition at 100 μg/ml). 3B. […] N=3-5 experiments. *: P<0.05 vs. HMGB1 alone.

[2] = system: acetaminophen-induced liver injury; experiment: Survival in experimental acetaminophen-induced liver injury; type: in vivo; conditions: mice; vehicle control group 35%; n=20 per group; P<0.05
Description: (§3) Haptoglobin is a complex protein consisting of α and β subunits (Yueh S C et al. J Chromatography, 2007). […] Administration of haptoglobin β subunit protects against lethality in mice with CLP-induced sepsis (CLP survival=85% in haptoglobin β-treated versus 50% in vehicle-treated group; n=22 mice per group, P<0.05) and in experimental acetaminophen-induced liver injury (Survival in haptoglobin β treated group=80% versus 35% in vehicle control group, P<0.05, n=20 mice per group). Screening of a peptide library of the haptoglobin β identified a critical region ([…], residues #278-305 in the B subunit) that retains the ability to inhibit HMGB1-induced TNF release from cultured macrophages. Taken together, these findings reveal a novel mechanism for haptoglobin modulation of the inflammatory action of HMGB1, with significant implications for developing experimental strategies targeting HMGB 1-dependent inflammatory diseases.
Acetaminophen-induced liver injury: Administration of haptoglobin β subunit protects against lethality in mice with experimental acetaminophen-induced liver injury (survival in haptoglobin β treated group=80% versus 35% in vehicle control group, P<0.05, n=20 mice per group).

CLP-induced sepsis = experiment: Survival in cecal ligation and puncture (CLP)-induced sepsis; type: in vivo, mice
Description: as §3
N=16 mice/group. […] Recombinant haptoglobin β (10 or 100 μg/mouse) was given once a day for 3 days starting at 24 hours after CLP surgery (N=25 mice/group). (See FIG. 5A-5B).

[3] = system: HMGB1-induced TNF release in primary mouse macrophages; experiment: Inhibition of HMGB1-induced TNF release in primary mouse macrophages; type: cell-based; conditions: N=5, result in words
Description: as §1, §2

[4] = target: T2, Haptoglobin beta subunit (human) (human, UniProt P00738 162-406); experiment: surface plasmon resonance
T2 construct: also called haptoglobin β; Hp β
T2 sequence: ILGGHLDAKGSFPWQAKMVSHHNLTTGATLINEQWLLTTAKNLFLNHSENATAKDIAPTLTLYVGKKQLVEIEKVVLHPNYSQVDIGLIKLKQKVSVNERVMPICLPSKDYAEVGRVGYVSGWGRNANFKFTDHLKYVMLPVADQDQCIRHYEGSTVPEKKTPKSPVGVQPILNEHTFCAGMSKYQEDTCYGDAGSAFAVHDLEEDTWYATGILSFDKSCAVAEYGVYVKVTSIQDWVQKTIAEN

haptoglobin β: Haptoglobin beta subunit (human), SEQ ID NO:3; recombinant
Kd (HMGB1; surface plasmon resonance, representative of 3 separate experiments): 29 nM | inhibition of HMGB1-induced TNF release ([1]; result in words): as effective as haptoglobin | Survival in acetaminophen-induced liver injury [2]: 80% | rescue from death after CLP (CLP-induced sepsis; haptoglobin KO mice, doses as low as 100 μg per animal per day, once a day for 3 days starting 24 hours after CLP, N=25 mice/group): rescued from death | CLP survival (CLP-induced sepsis; mice with CLP-induced sepsis, vehicle-treated group 50%, n=22 per group, P<0.05): 85% | likelihood of survival vs vehicle-treated control after CLP (CLP-induced sepsis; wild type mice, 200 μg/mouse injected IP, N=16 mice/group, P<0.05): twice as likely to survive

GYVSGWGRNANFKFTDHLKYVMLPVAD [Hpβ peptide]
inhibition of HMGB1-induced TNF release [3]: dose-dependently inhibited | Kd (HMGB1; BIAcore analysis): ~17000 nM

B1: HMGB1 (ligand)
chain: MGKGDPKKPRGKMSSYAFFVQTCREEHKKKHPDASVNFSEFSKKCSERWKTMSAKEKGKFEDMAKADKARYEREMKTYIPPKGETKKKFKDPNAPKRPPSAFFLFCSEYRPKIKGEHPGLSIGDVAKKLGEMWNNTAADDKQPYEKKAAKLKEKYEKDIAAYRAKGKPDAAKKGVVKAEKSKKKKEEEEDEEDEEDEEEEEDEEDEDEEEDDDDE
notes: also called extracellular HMGB1
Kd [4]: 29 nM

B2: haptoglobin: full-length haptoglobin, acute phase protein with α and β subunits; mature human sequence SEQ ID NO:2 (protein, listed as Homo sapiens)
chain: VDSGNDVTDIADDGCPKPPEIAHGYVEHSVRYQCKNYYKLRTEGDGVYTLNDKKQWINKAVGDKLPECEADDGCPKPPEIAHGYVEHSVRYQCKNYYKLRTEGDGVYTLNNEKQWINKAVGDKLPECEAVCGKPKNPANPVQRILGGHLDAKGSFPWQAKMVSHHNLTTGATLINEQWLLTTAKNLFLNHSENATAKDIAPTLTLYVGKKQLVEIEKVVLHPNYSQVDIGLIKLKQKVSVNERVMPICLPSKDYAEVGRVGYVSGWGRNANFKFTDHLKYVMLPVADQDQCIRHYEGSTVPEKKTPKSPVGVQPILNEHTFCAGMSKYQEDTCYGDAGSAFAVHDLEEDTWYATGILSFDKSCAVAEYGVYVKVTSIQDWVQKTIAEN
inhibition of HMGB1-induced TNF release ([1]; at 100 μg/ml, dose-dependent): up to 90% | protection in intra-abdominal sepsis (CLP) (CLP-induced sepsis; wild type and haptoglobin-gene deficient animals, result in words): confers significant protection

— patent US20180344808A1, “HAPTOGLOBIN DERIVATIVE FOR TREATMENT OF SEPSIS AND ACETAMINOPHEN-INDUCED LIVER DAMAGE” (THE FEINSTEIN INSTITUTE FOR MEDICAL RESEARCH, priority 2017, published 2018)
